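These data come from cells grown in 96-well plates and exposed to compound for 48 hours at five concentrations. The concentration for full growth arrest is given as TGI.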
These molecules were tested on SK-MEL-28 melanoma (assay: NCI-60 cell line screen, 48 h).
`CN(C)CN(C)c1nc(N(C)C)nc(N(C)CN(C)C)n1` showed a TGI of 83.6 µM.
For `O=C(Cc1ccccc1)NN1C(=O)/C(=C\c2ccccc2O)SC1=Nc1ccccc1`, the TGI was greater than 100 µM.
With `COc1ccc2c(c1)CCC/C2=N\NS(=O)(=O)c1c(C)cc(C)cc1C` the TGI was greater than 100 µM.
Molecule `CSCCCNC(=O)[C@H](CSC)NC(=O)c1csc(CCNC(=O)[C@@H](NSc2ccccc2[N+](=O)[O-])C(C)O)n1` (stereo not given in full) has a TGI greater than 100 µM.
`CN(C)/C=C/C=C(/C=N/S(=O)(=O)C(F)(F)F)C1C=CN(S(=O)(=O)C(F)(F)F)C=C1` showed a TGI greater than 100 µM.
In the case of `Cc1ccc(S(=O)(=O)Nn2c(O)c(C#N)c(-c3ccc([N+](=O)[O-])cc3)c(C#N)c2=O)cc1`, the TGI is reported as greater than 100 µM.
For `CC(C)[Si](OCC1CC(C#N)OC(C)(C)O1)(C(C)C)C(C)C` (stereo not given), the TGI was greater than 100 µM.
In the case of `CC(=O)Nc1ccc(-c2nnc(SCC(=O)Nc3ccc(Cl)cc3)o2)cc1`, the TGI is reported as 27.2 µM.
`Cc1ccccc1NC(=O)Cc1csc(N=Nc2c(O)[nH]c3ccccc23)n1` gave a TGI greater than 1 µM.
`FC(F)(F)c1ccc2nc(Sc3ccc4ccccc4c3)cnc2c1` was tested, and the TGI was greater than 100 µM.
For `COc1ccc2c([nH]c3c(O)c(-c4c(C)cc5c([nH]c6c(CC=C(C)C)c(OC)ccc65)c4O)c(C)cc32)c1CC=C(C)C`, the TGI was greater than 100 µM.
For `COc1ccc(-n2cnc3c(NC(Cc4ccccc4)C(=O)O)ncnc32)cc1` (stereo not given), the TGI was greater than 100 µM.
With `CC(=O)OCC1OC(n2c(-c3ccccc3)c(N=Nc3ccc(C)cc3)c(C)c(C#N)c2=S)C(OC(C)=O)C(OC(C)=O)C1OC(C)=O` (stereo not given) the TGI was 94.4 µM.
In the case of `CN1CCC2(CC1)C(=NC1CCCCC1)NC(=O)N2c1ccccc1`, the TGI is reported as greater than 100 µM.
`CC(C)=NOC(=O)Nc1cccc2c1OCO2` showed a TGI greater than 100 µM.
Work on `Cc1ccc(/C=C2/N=C(N/N=C\c3ccccc3)NC2=O)cc1` yielded a TGI greater than 100 µM.
With `O=C(Nc1ccc(Cl)cc1)c1cc(S(=O)(=O)Nc2n[nH]c(=O)n2-c2ccccc2)c(S)cc1Cl` the TGI was greater than 100 µM.
`Cc1csc(-n2c(C)nc3cc(Cl)ccc3c2=O)n1` was tested, and the TGI was greater than 100 µM.

What follows are molecules tested on SK-MEL-5 melanoma (assay: NCI-60 cell line screen, 48 h).
Work on `O=C1CC(c2ccccc2)S(=O)c2ccccc2N1` (stereo not given) yielded a TGI greater than 100 µM.
Work on `CC1(C)CC(=O)C2=C(C1)OC1(CC2c2ccc(Cl)cc2)CC(c2ccc(Cl)cc2)C2=C(CC(C)(C)CC2=O)O1` (stereo not given) yielded a TGI of 31.4 µM.
Work on `O=c1c2ccccc2nc(-c2ccccc2)n1NC(=S)Nc1cccc(Cl)c1` yielded a TGI greater than 100 µM.
`C(#Cc1ccccc1)SC1=C(c2ccccc2)S/C(=C(\SC#Cc2ccccc2)c2ccccc2)S1` showed a TGI greater than 100 µM.
In the case of `COC(=O)c1cc(/C=C\c2cc(OC)ccc2OC)ccc1OC`, the TGI is reported as 34.5 µM.
Work on `CCOC(=O)CC(NC(=O)c1ccc(N=NN(C)C)cc1)C(=O)OCC` (stereo not given) yielded a TGI greater than 100 µM.
`CN(C)CN(C)c1nc(N(C)C)nc(N(C)CN(C)C)n1` showed a TGI greater than 100 µM.
Molecule `O=C(Cc1ccccc1)NN1C(=O)/C(=C\c2ccccc2O)SC1=Nc1ccccc1` has a TGI greater than 100 µM.
`COc1ccc2c(c1)CCC/C2=N\NS(=O)(=O)c1c(C)cc(C)cc1C` gave a TGI of 33.4 µM.
Work on `CSCCCNC(=O)[C@H](CSC)NC(=O)c1csc(CCNC(=O)[C@@H](NSc2ccccc2[N+](=O)[O-])C(C)O)n1` (stereo not given in full) yielded a TGI greater than 100 µM.
Molecule `CN(C)/C=C/C=C(/C=N/S(=O)(=O)C(F)(F)F)C1C=CN(S(=O)(=O)C(F)(F)F)C=C1` has a TGI of 51.7 µM.
In the case of `Cc1ccc(S(=O)(=O)Nn2c(O)c(C#N)c(-c3ccc([N+](=O)[O-])cc3)c(C#N)c2=O)cc1`, the TGI is reported as greater than 100 µM.
`CC(C)[Si](OCC1CC(C#N)OC(C)(C)O1)(C(C)C)C(C)C` (stereo not given) was tested, and the TGI was 33 µM.
In the case of `CC(=O)Nc1ccc(-c2nnc(SCC(=O)Nc3ccc(Cl)cc3)o2)cc1`, the TGI is reported as 19.7 µM.
Molecule `Cc1ccccc1NC(=O)Cc1csc(N=Nc2c(O)[nH]c3ccccc23)n1` has a TGI greater than 100 µM.
For `FC(F)(F)c1ccc2nc(Sc3ccc4ccccc4c3)cnc2c1`, the TGI was greater than 100 µM.
With `COc1ccc2c([nH]c3c(O)c(-c4c(C)cc5c([nH]c6c(CC=C(C)C)c(OC)ccc65)c4O)c(C)cc32)c1CC=C(C)C` the TGI was greater than 100 µM.
With `COc1ccc(-n2cnc3c(NC(Cc4ccccc4)C(=O)O)ncnc32)cc1` (stereo not given) the TGI was greater than 100 µM.
Work on `CN1CCC2(CC1)C(=NC1CCCCC1)NC(=O)N2c1ccccc1` yielded a TGI greater than 100 µM.
With `CC(C)=NOC(=O)Nc1cccc2c1OCO2` the TGI was greater than 100 µM.
`Cc1ccc(/C=C2/N=C(N/N=C\c3ccccc3)NC2=O)cc1` was tested, and the TGI was greater than 100 µM.
For `O=C(Nc1ccc(Cl)cc1)c1cc(S(=O)(=O)Nc2n[nH]c(=O)n2-c2ccccc2)c(S)cc1Cl`, the TGI was greater than 100 µM.
`Cc1csc(-n2c(C)nc3cc(Cl)ccc3c2=O)n1` was tested, and the TGI was greater than 100 µM.

These molecules were tested on SW-620 colon (assay: NCI-60 cell line screen, 48 h).
`CC1(C)CC(=O)C2=C(C1)OC1(CC2c2ccc(Cl)cc2)CC(c2ccc(Cl)cc2)C2=C(CC(C)(C)CC2=O)O1` (stereo not given) gave a TGI of 61.2 µM.
In the case of `O=C(O)c1ccc(N/C(=C(/C(Cl)=C(Cl)Cl)[N+](=O)[O-])n2nnc3ccccc32)cc1`, the TGI is reported as greater than 100 µM.
In the case of `O=c1c2ccccc2nc(-c2ccccc2)n1NC(=S)Nc1cccc(Cl)c1`, the TGI is reported as greater than 100 µM.
`CCn1c2ccccc2c2cc(Nc3cc(C)[nH]c(=O)n3)ccc21` gave a TGI greater than 100 µM.
`C(#Cc1ccccc1)SC1=C(c2ccccc2)S/C(=C(\SC#Cc2ccccc2)c2ccccc2)S1` showed a TGI greater than 100 µM.
In the case of `COC(=O)c1cc(/C=C\c2cc(OC)ccc2OC)ccc1OC`, the TGI is reported as greater than 100 µM.
Molecule `CCOC(=O)C(C(=O)COC(C)(C)C)[C@@H]1C=C[C@H](OC(C)=O)C1` (stereo not given in full) has a TGI greater than 100 µM.
Work on `CCOC(=O)CC(NC(=O)c1ccc(N=NN(C)C)cc1)C(=O)OCC` (stereo not given) yielded a TGI greater than 100 µM.
`CN(C)CN(C)c1nc(N(C)C)nc(N(C)CN(C)C)n1` gave a TGI of 57.3 µM.
For `O=C(Cc1ccccc1)NN1C(=O)/C(=C\c2ccccc2O)SC1=Nc1ccccc1`, the TGI was greater than 100 µM.
`COc1ccc2c(c1)CCC/C2=N\NS(=O)(=O)c1c(C)cc(C)cc1C` gave a TGI of 90.8 µM.
Work on `CSCCCNC(=O)[C@H](CSC)NC(=O)c1csc(CCNC(=O)[C@@H](NSc2ccccc2[N+](=O)[O-])C(C)O)n1` (stereo not given in full) yielded a TGI greater than 100 µM.
`CN(C)/C=C/C=C(/C=N/S(=O)(=O)C(F)(F)F)C1C=CN(S(=O)(=O)C(F)(F)F)C=C1` was tested, and the TGI was greater than 100 µM.
`Cc1ccc(S(=O)(=O)Nn2c(O)c(C#N)c(-c3ccc([N+](=O)[O-])cc3)c(C#N)c2=O)cc1` showed a TGI greater than 100 µM.

— PubChem BioAssay (NCI)
